Tested on: Ajuga reptans suspension culture
Assay: Differential induction of diterpenes (Compound 6) in Ajuga reptans suspension culture
Type: cell-based
Settings: B49 production medium, treated day 7, harvested after a further seven days, n = 3
Experimental: Differential induction of diterpenoids in the Ajuga reptans suspension culture was performed by inoculating 500 mL conical flasks containing 190 mL of a secondary metabolite production medium B49 (Gamborg's B5, 5% sucrose, no hormones), with 70 mL of 14 day old suspension culture. The culture was incubated at 25° C. in continuous low light and shaken at 140 rpm. Cultures were grown for seven days (25° C. in continuous low light and shaken at 140 rpm) and then dispensed as 5 mL aliquots to 6-well plates (Bibby Sterilin Ltd, Stone, UK). Cultures were then treated using one of the following protocols:
Triplicate samples were set up for each treatment. Cultures were incubated for a further seven days before harvest for extraction and analysis of diterpenoids.
Cultures were harvested by freezing entire 6-well plates at −20° C. and then freeze-drying cultures in situ. […] After standing for one hour 500 μL of filtered methanol extract was removed and immediately analyzed.
HPLC analysis was carried out using an Xterra RP 18 column (dimensions 3×150 mm with 5 μm packing) using an isocratic solvent system of water (two volumes): acetonitrile (three volumes) to which has been added 0.1% acetic acid. […] The eluate was monitored by UV absorption. The principal diterpene metabolite (Compound 6) has UV absorption maxima at 230, 290 and 340 nm and can be sensitively monitored at any of these wavelengths. […]

CC/C=C\CC1C(=O)CCC1CC(=O)OC (stereo not shown) [methyl jasmonate]
Compound 6 (mg/L culture) Mean: 9.52 mg/L culture
